Experimental data reported in article PMC12056667 (Chemical Science, 2025).
Like-named read-outs stand apart in the source and are kept apart here.

Experiments:
Tet(X4) = Tet(X4) (Escherichia coli, UniProt A0A3T0V9Y5); assay: FP competitive displacement of probe 6; assay type: binding; conditions: 25 nM 6, 40 nM Tet(X4), 5 mM MgCl2, 1 μM FAD, 100 mM Tris pH 7.0, 0.01% Triton X-100
Procedure: A 2× solution containing 80 nM Tet(X4), 2 μM FAD and 10 mM MgCl2 in the assay buffer was dispensed into the first 22 columns of a 384-well black, non-binding microtiter plate (Greiner Bio-One), 12.5 μL per well, using a microplate reagent dispenser. A solution of 2 μM FAD and 10 mM MgCl2 in the assay buffer was dispensed into the remaining columns to serve as a no enzyme control. A 3-fold, 10-point dilution series of substrates and inhibitors was made in DMSO in a V-bottom 96-well plate (Greiner Bio-One) with a highest concentration of 5 mM or 0.5 mM. Into one column was added DMSO with no inhibitor or substrate, to serve as a positive control. Tigecycline was included as a reference on every plate to ensure reproducibility. 0.5 μL of each dilution was transferred in quadruplicate to the 384-well plate containing enzyme solution using a CyBi-Well liquid-handling robot (CyBio). A solution of 50 nM 6 in the assay buffer was then dispensed, with 12.5 μL per well. The plate was briefly centrifuged (1000 rpm), then incubated at ambient temperature for 30 min prior to measuring the FP. Data points were normalised between the positive and negative controls. Normalised % response was plotted as a function of log10([Inhibitor]), and the IC50^app was determined by fitting the data to the equation: Y = Bottom + (top-bottom)/(1 + 10^Log(IC50) − X) × HillSlope in GraphPad Prism 9.4.1, where Y = % response and X = log10([Inhibitor]). Wells with unusual fluorescence intensities were manually identified and removed from the analysis. […]

[1] = test system: Acinetobacter baumannii NT5-1 – tet(X5); assay: microbe, parasite or virus in culture; assay type: cell-based
Procedure: (§1) MIC tests and checkerboard assays were performed in U-bottom, 96-well microtiter plates using a modified broth microdilution protocol following CLSI guidelines. Cation-adjusted Mueller-Hinton Broth (CAMHB) was prepared fresh on the day of testing.[74] […] Bacterial colonies were selected from an overnight culture on MHA plates (supplemented with 0.2%w/vL-arabinose for E. coli TOP10 containing pBAD-TOPO-Tet(X4)) and were suspended in 0.9% saline solution to achieve a 0.5 McFarland standard. A 100 μL aliquot of this suspension was then diluted into 9.9 mL of CAMHB to yield approximately 1.5 × 10^6 cfu mL^−1. 50 μL of the suspension was then added to each well of a microtiter plates. Plates were incubated at 37 °C for 18 h. At least 2 replicates were conducted for each combination. E. coli TOP10 + pBAD-TOPO-Tet(X4) cells were grown in the absence and presence of 0.2%w/vL-arabinose. Analysis of the MIC and checkerboard results were carried out by visual inspection of growth, with and without resazurin dye, an oxidation–reduction indicator.[75] As a measure of synergy, fractional inhibitory concentration index (FICI) was calculated as FICA + FICB, where FICA and FICB are the MICcombination/MICalone for each agent, respectively.[76] Results were interpreted as follows: synergistic (<0.5), indifferent (1.0–4.0) or antagonistic (>4.0).[64] In cases where the MIC exceeded or was below the measured range, the borderline value was taken to calculate the FIC index.

[2] = test system: Escherichia coli T-24a – tet(X4); assay: microbe, parasite or virus in culture; assay type: cell-based
Procedure: as §1

[3] = test system: Proteus penneri NT6-2 – tet(X6); assay: microbe, parasite or virus in culture; assay type: cell-based
Procedure: as §1

[4] = test system: Salmonella enterica T-2a – tet(X4); assay: microbe, parasite or virus in culture; assay type: cell-based
Procedure: (§2) MIC tests and checkerboard assays were performed in U-bottom, 96-well microtiter plates using a modified broth microdilution protocol following CLSI guidelines. Cation-adjusted Mueller-Hinton Broth (CAMHB) was prepared fresh on the day of testing.[74] In brief, assays were set up in a total volume of 100 μL per well and titrations comprised seven 2-fold dilutions of inhibitors and ten 2-fold dilutions of tigecycline in CAMHB. Bacterial colonies were selected from an overnight culture on MHA plates (supplemented with 0.2%w/vL-arabinose for E. coli TOP10 containing pBAD-TOPO-Tet(X4)) and were suspended in 0.9% saline solution to achieve a 0.5 McFarland standard. A 100 μL aliquot of this suspension was then diluted into 9.9 mL of CAMHB to yield approximately 1.5 × 10^6 cfu mL^−1. 50 μL of the suspension was then added to each well of a microtiter plates. Plates were incubated at 37 °C for 18 h. At least 2 replicates were conducted for each combination. E. coli TOP10 + pBAD-TOPO-Tet(X4) cells were grown in the absence and presence of 0.2%w/vL-arabinose. Analysis of the MIC and checkerboard results were carried out by visual inspection of growth, with and without resazurin dye, an oxidation–reduction indicator.[75] As a measure of synergy, fractional inhibitory concentration index (FICI) was calculated as FICA + FICB, where FICA and FICB are the MICcombination/MICalone for each agent, respectively.[76] Results were interpreted as follows: synergistic (<0.5), indifferent (1.0–4.0) or antagonistic (>4.0).[64] In cases where the MIC exceeded or was below the measured range, the borderline value was taken to calculate the FIC index.

[5] = test system: Acinetobacter spp. NT3-1 – tet(X3); assay: microbe, parasite or virus in culture; assay type: cell-based
Procedure: as §2

[6] = test system: E. coli TOP10 containing plasmid pBAD-TOPO-Tet(X4); assay: Broth microdilution MIC and checkerboard assay; assay type: cell-based, Escherichia coli; conditions: alone; without L-arabinose induction
From the text: Tet(X4) was sub-cloned from the Tet(X4) pET28b-(+) expression vector via TOPO cloning. The insert was amplified using the taq polymerase with the forward primer 5′- […]-3′ and the reverse primer 5′- […]-3’. Following PCR purification (Thermo Fisher Scientific), the A-tailed PCR product was ligated into the pBAD-TOPO vector using a TOPO cloning kit (Invitrogen) according to the manufacturer's protocol. Following amplification in E. coli NEB5α cells (NEBiolabs), the fidelity of the insert was confirmed by Sanger sequencing (Eurofins). For microbiological experiments, E. coli TOP10 cells were used as the recipient strain. Cells were plated on Mueller-Hinton agar (MHA) plates containing ampicillin at 100 μg mL^−1. The introduction of pBAD-TOPO-Tet(X4) was confirmed by colony PCR. Strains were stored in a freezer at −80 °C in cryopreservation beads.
as §1

[7] = IC50app, Tet(X4) (Polarization)
[8] = inhibitor in combination with tigecycline, lowest FICI
[9] = tigecycline in combination with the inhibitor, lowest FICI

Question: With `CCC1(c2cnc[nH]2)Cc2ccccc2C1` [Atipamezole] as the compound, how does the IC50 (Tet(X4); [7]) read?
Answer: > 100000 nM

Question: With `Nc1nc2c(c(=O)[nH]1)N(C=O)C(CNc1ccc(C(=O)N[C@@H](CCC(=O)O)C(=O)O)cc1)CN2` (stereo partly shown) [Calcium folinate] as the compound, how does the IC50 (Tet(X4); [7]) read?
Answer: > 100000 nM

Question: How did the IC50 (Tet(X4); IC50app, FP assay) turn out when `CN(C)[C@@H]1C(O)=C(C(N)=O)C(=O)[C@@]2(O)C(O)=C3C(=O)c4c(O)ccc(Cl)c4[C@@](C)(O)[C@H]3C[C@@H]12` [Chlortetracycline] was run?
Answer: 39 ± 9.6 nM

Question: Which IC50 (Tet(X4); [7]) does the source give for `C[C@@H](Oc1cc(-c2cnn(C3CCNCC3)c2)cnc1N)c1c(Cl)ccc(F)c1Cl` [Crizotinib] here?
Answer: > 100000 nM

Question: For `NCCS` [Cysteamine], which IC50 (Tet(X4); read-out: IC50app, Tet(X4) (Polarization)) is on record?
Answer: > 100000 nM

Question: How did the IC50 (Tet(X4); IC50app, FP assay) turn out when `CN(C)[C@@H]1C(O)=C(C(N)=O)C(=O)[C@@]2(O)C(O)=C3C(=O)c4c(O)ccc(Cl)c4[C@@H](O)[C@H]3C[C@@H]12` [Demeclocycline] was run?
Answer: 29 ± 4.6 nM

Question: With `N=C(N)c1ccc(/N=N/Nc2ccc(C(=N)N)cc2)cc1` [Diminazene] as the compound, how does the IC50 (Tet(X4); [7]) read?
Answer: > 100000 nM

Question: Which IC50 (Tet(X4); [7]) does the source give for `CCN(CC)C(=S)SSC(=S)N(CC)CC` [Disulfiram] here?
Answer: > 100000 nM

Question: For `NCCc1ccc(O)c(O)c1` [Dopamine], which IC50 (Tet(X4); [7]) is on record?
Answer: > 100000 nM

Question: Which “Tet(X) inhibitor MIC” value ([1]; alone, A. baumannii NT5-1) does the source give for `C[C@]12CCC(=O)C=C1[C@@H]1C[C@@H]1[C@H]1[C@@H]3[C@@H]4C[C@@H]4[C@@]4(CCC(=O)O4)[C@@]3(C)CC[C@@H]12` [Drosperinone] here?
Answer: > 128 µg/mL

Question: And the “Combination (Antibiotic/Inhibitor) MICs: inhibitor” value [1, 8]?
Answer: 128 µg/mL

Question: What about the “Combination (Antibiotic/Inhibitor) MICs: antibiotic” value [1, 9] of the same compound?
Answer: 4 µg/mL

Question: What about the FICI ([1]; with tigecycline) of the same compound?
Answer: 1.5

Question: And the Outcome ([1]; with tigecycline)?
Answer: indifferent (indifferent (0.5-4.0))

Question: What about the “Tet(X) inhibitor MIC” value ([2]; alone, E. coli T-24a) of the same compound?
Answer: 256 µg/mL

Question: And the “Combination (Antibiotic/Inhibitor) MICs: antibiotic” value [2, 9]?
Answer: 8 µg/mL

Question: What about the FICI ([2]; with tigecycline) of the same compound?
Answer: 1

Question: And the Outcome ([2]; with tigecycline)?
Answer: indifferent (indifferent (0.5-4.0))

Question: And the “Tet(X) inhibitor MIC” value ([3]; alone, P. penneri NT6-2)?
Answer: > 128 µg/mL

Question: What about the “Combination (Antibiotic/Inhibitor) MICs: inhibitor” value [3, 8] of the same compound?
Answer: 128 µg/mL

Question: And the “Combination (Antibiotic/Inhibitor) MICs: antibiotic” value [3, 9]?
Answer: 8 µg/mL

Question: What about the FICI ([3]; with tigecycline) of the same compound?
Answer: 2

Question: What about the Outcome ([3]; with tigecycline) of the same compound?
Answer: indifferent (indifferent (0.5-4.0))

Question: And the “Combination (Antibiotic/Inhibitor) MICs: antibiotic” value [4, 9]?
Answer: 16 µg/mL

Question: And the FICI ([4]; with tigecycline)?
Answer: 1.5

Question: And the Outcome ([4]; with tigecycline)?
Answer: indifferent (indifferent (0.5-4.0))

Question: And the “Tet(X) inhibitor MIC” value ([5]; alone, Acinetobacter spp. NT3-1)?
Answer: 128 µg/mL

Question: And the “Combination (Antibiotic/Inhibitor) MICs: inhibitor” value [5, 8]?
Answer: 128 µg/mL

Question: What about the “Combination (Antibiotic/Inhibitor) MICs: antibiotic” value [5, 9] of the same compound?
Answer: 4 µg/mL

Question: What about the FICI ([5]; with tigecycline) of the same compound?
Answer: 2

Question: And the Outcome ([5]; with tigecycline)?
Answer: indifferent (indifferent (0.5-4.0))

Question: How did the IC50 (Tet(X4); IC50app, FP assay) turn out when `CN(C)[C@@H]1C(O)=C(C(N)=O)C(=O)[C@@]2(O)C(O)=C3C(=O)c4c(O)c(NC(=O)CN5CCCC5)cc(F)c4C[C@H]3C[C@@H]12` [Eravacycline] was run?
Answer: 13.7 ± 1.6 nM

Question: For `COc1ccnc(C[S+]([O-])c2nc3cc(-n4cccc4)ccc3[nH]2)c1C` (stereo not shown) [Ilaprazole], which IC50 (Tet(X4); [7]) is on record?
Answer: > 100000 nM

Question: How did the IC50 (Tet(X4); IC50app, FP assay) turn out when `C=C1c2cccc(O)c2C(=O)C2=C(O)[C@]3(O)C(=O)C(C(N)=O)=C(O)[C@@H](N(C)C)[C@@H]3[C@@H](O)[C@H]12` [Methacycline] was run?
Answer: 311 ± 36 nM

Question: Which IC50 (Tet(X4); IC50app, FP assay) does the source give for `CN(C)c1ccc(O)c2c1C[C@H]1C[C@H]3[C@H](N(C)C)C(O)=C(C(N)=O)C(=O)[C@@]3(O)C(O)=C1C2=O` [Minocycline] here?
Answer: 51.5 ± 3.6 nM

Question: `NC(=O)c1ncn([C@@H]2O[C@H](CO)[C@@H](O)[C@H]2O)c1O` [Mizoribine] was tested. Which IC50 (Tet(X4); [7]) did it give?
Answer: > 100000 nM

Question: For `CN(C)c1cc(CNCC(C)(C)C)c(O)c2c1C[C@H]1C[C@H]3[C@H](N(C)C)C(O)=C(C(N)=O)C(=O)[C@@]3(O)C(O)=C1C2=O` [Omadacycline], which IC50 (Tet(X4); IC50app, FP assay) is on record?
Answer: 24.3 ± 4 nM

Question: For `CN(C)[C@@H]1C(O)=C(C(N)=O)C(=O)[C@@]2(O)C(O)=C3C(=O)c4c(O)cccc4[C@@](C)(O)[C@H]3[C@H](O)[C@@H]12` [Oxytetracycline], which IC50 (Tet(X4); IC50app, FP assay) is on record?
Answer: 4430 ± 260 nM

Question: How did the IC50 (Tet(X4); [7]) turn out when `Nc1ccc2cc3ccc(N)cc3nc2c1` [Proflavine] was run?
Answer: > 100000 nM

Question: For `CN(C)[C@@H]1C(O)=C(C(N)=O)C(=O)[C@@]2(O)C(O)=C3C(=O)c4c(O)cccc4C[C@H]3C[C@@H]12` [Sancycline], which IC50 (Tet(X4); IC50app, FP assay) is on record?
Answer: 47 ± 7.1 nM

Question: How did the IC50 (Tet(X4); IC50app, FP assay) turn out when `CON(C)Cc1ccc(O)c2c1C[C@H]1C[C@H]3[C@H](N(C)C)C(O)=C(C(N)=O)C(=O)[C@@]3(O)C(O)=C1C2=O` [Sarecycline] was run?
Answer: 31.5 ± 10 nM

Question: Which results are given for `CN(C)[C@@H]1C(O)=C(C(N)=O)C(=O)[C@@]2(O)C(O)=C3C(=O)c4c(O)cccc4[C@@](C)(O)[C@H]3C[C@@H]12` [Tetracycline]?
Answer: IC50 (Tet(X4); IC50app, FP assay): 69.6 ± 8.8 nM; Antibiotic MIC [6]: 4 µg/mL
